ChEMBL document CHEMBL3885861, “Open TG-GATES”

Species: Rattus norvegicus
Experiment: Open TG-GATES - Regimen: Single
Assay type: toxicity, organism-based, Sprague-Dawley
Design: regimen Single, gender Male, age 6 weeks
Conditions: in vivo, po, route gavage; for Bas / Eos / Fbg / Lym / Mono / RBC / Ret / WBC: tissue Blood; for KIDNEY_L / KIDNEY_R / KIDNEY_TOTAL: tissue Kidney
[1] = 60 mg/kg, 3 h, dose level Middle
[2] = 60 mg/kg, 3 h, tissue Plasma, dose level Middle
[3] = 60 mg/kg, 6 h, dose level Middle
[4] = 60 mg/kg, 6 h, tissue Plasma, dose level Middle
[5] = 60 mg/kg, 9 h, dose level Middle
[6] = 60 mg/kg, 9 h, tissue Plasma, dose level Middle
[7] = 60 mg/kg, 24 h, dose level Middle
[8] = 60 mg/kg, 24 h, tissue Plasma, dose level Middle
[9] = 200 mg/kg, 3 h, dose level High
[10] = 200 mg/kg, 3 h, tissue Plasma, dose level High
[11] = 200 mg/kg, 6 h, dose level High
[12] = 200 mg/kg, 6 h, tissue Plasma, dose level High
[13] = 200 mg/kg, 9 h, dose level High
[14] = 200 mg/kg, 9 h, tissue Plasma, dose level High
[15] = 200 mg/kg, 24 h, dose level High
[16] = 200 mg/kg, 24 h, tissue Plasma, dose level High

C=C[C@H]1C[N@@]2CC[C@H]1C[C@@H]2[C@@H](O)c1ccnc2ccc(OC)cc12 [QUINIDINE]
Bas [1]: 0%
Eos [1]: 0.4%
Fbg [1]: 295 mg/dL
Lym [1]: 73.2%
Mono [1]: 2.6%
RBC [1]: 588 x10_4/ul
Ret [1]: 7.6%
WBC [1]: 87.1 x10_2/uL
KIDNEY_L [1]: 1 g
KIDNEY_R [1]: 1 g
KIDNEY_TOTAL [1]: 2 g
ALP [2]: 1472.8 IU/L
CRE [2]: 0.2 mg/dL
DBIL [2]: 0.002 mg/dL
IP [2]: 9.1 mg/dL
K [2]: 4 meq/L
LDH [2]: 131.2 IU/L
Na [2]: 140.6 meq/L
PL [2]: 148.2 mg/dL
RALB [2]: 2.9 g/dL
TBIL [2]: 0.026 mg/dL
TG [2]: 56.2 mg/dL
TP [2]: 5.2 g/dL
gamma-GTP [2]: 2.2 IU/L
TERMINAL_BW [3]: 218.5 g
Bas [3]: 0%
Eos [3]: 0.8%
Fbg [3]: 301.2 mg/dL
Lym [3]: 79.8%
Mono [3]: 2.2%
RBC [3]: 623.4 x10_4/ul
Ret [3]: 6.6%
WBC [3]: 77.2 x10_2/uL
KIDNEY_L [3]: 1 g
KIDNEY_R [3]: 1 g
KIDNEY_TOTAL [3]: 2 g
ALP [4]: 1426.2 IU/L
CRE [4]: 0.2 mg/dL
DBIL [4]: 0.002 mg/dL
IP [4]: 9.1 mg/dL
K [4]: 4.3 meq/L
LDH [4]: 136.2 IU/L
Na [4]: 142.6 meq/L
PL [4]: 149.4 mg/dL
RALB [4]: 3 g/dL
TBIL [4]: 0.022 mg/dL
TG [4]: 83.2 mg/dL
TP [4]: 5.3 g/dL
gamma-GTP [4]: 1.4 IU/L
TERMINAL_BW [5]: 207.3 g
Bas [5]: 0%
Eos [5]: 0.8%
Fbg [5]: 300 mg/dL
Lym [5]: 77%
Mono [5]: 1.6%
RBC [5]: 622.8 x10_4/ul
Ret [5]: 6.8%
WBC [5]: 59.2 x10_2/uL
KIDNEY_L [5]: 1 g
KIDNEY_R [5]: 1 g
KIDNEY_TOTAL [5]: 2 g
ALP [6]: 1460.8 IU/L
CRE [6]: 0.2 mg/dL
DBIL [6]: 0.002 mg/dL
IP [6]: 9.6 mg/dL
K [6]: 4.4 meq/L
LDH [6]: 141.8 IU/L
Na [6]: 143.8 meq/L
PL [6]: 139.8 mg/dL
RALB [6]: 3 g/dL
TBIL [6]: 0.024 mg/dL
TG [6]: 74 mg/dL
TP [6]: 5.4 g/dL
gamma-GTP [6]: 1 IU/L
TERMINAL_BW [7]: 225.2 g
Bas [7]: 0%
Eos [7]: 0.8%
Fbg [7]: 337.8 mg/dL
Lym [7]: 72.4%
Mono [7]: 3.4%
RBC [7]: 650.2 x10_4/ul
Ret [7]: 6.9%
WBC [7]: 95.3 x10_2/uL
KIDNEY_L [7]: 1 g
KIDNEY_R [7]: 1 g
KIDNEY_TOTAL [7]: 2 g
ALP [8]: 1697 IU/L
CRE [8]: 0.1 mg/dL
DBIL [8]: 0 mg/dL
IP [8]: 8.1 mg/dL
K [8]: 4.1 meq/L
LDH [8]: 181.4 IU/L
Na [8]: 141 meq/L
RALB [8]: 3 g/dL
TBIL [8]: 0.014 mg/dL
TP [8]: 5.6 g/dL
gamma-GTP [8]: 1.4 IU/L
TERMINAL_BW [9]: 218.1 g
Bas [9]: 0%
Eos [9]: 0.8%
Fbg [9]: 267 mg/dL
Lym [9]: 76.2%
Mono [9]: 2.2%
RBC [9]: 571.6 x10_4/ul
Ret [9]: 6.9%
WBC [9]: 60.8 x10_2/uL
KIDNEY_L [9]: 1 g
KIDNEY_R [9]: 1 g
KIDNEY_TOTAL [9]: 2 g
ALP [10]: 1429.4 IU/L
CRE [10]: 0.2 mg/dL
DBIL [10]: 0.002 mg/dL
GLC [10]: 172 mg/dL
IP [10]: 9.1 mg/dL
K [10]: 4 meq/L
LDH [10]: 121 IU/L
Na [10]: 140.6 meq/L
PL [10]: 126.8 mg/dL
RALB [10]: 2.9 g/dL
TBIL [10]: 0.02 mg/dL
TC [10]: 66.2 mg/dL
TG [10]: 46.8 mg/dL
TP [10]: 5.1 g/dL
gamma-GTP [10]: 1.4 IU/L
TERMINAL_BW [11]: 221.5 g
Bas [11]: 0%
Eos [11]: 0.8%
Fbg [11]: 318.2 mg/dL
Lym [11]: 76.4%
Mono [11]: 2.2%
RBC [11]: 584.8 x10_4/ul
Ret [11]: 7.5%
WBC [11]: 76 x10_2/uL
KIDNEY_L [11]: 1 g
KIDNEY_R [11]: 1 g
KIDNEY_TOTAL [11]: 2 g
ALP [12]: 1392.8 IU/L
CRE [12]: 0.2 mg/dL
DBIL [12]: 0.004 mg/dL
IP [12]: 8.7 mg/dL
K [12]: 4.3 meq/L
LDH [12]: 181.8 IU/L
Na [12]: 142 meq/L
RALB [12]: 3 g/dL
TBIL [12]: 0.024 mg/dL
TC [12]: 86.4 mg/dL
TG [12]: 55.4 mg/dL
TP [12]: 5.4 g/dL
gamma-GTP [12]: 1.2 IU/L
TERMINAL_BW [13]: 218.2 g
Bas [13]: 0%
Eos [13]: 0.8%
Fbg [13]: 309.8 mg/dL
Lym [13]: 74%
Mono [13]: 1.6%
RBC [13]: 591 x10_4/ul
Ret [13]: 6.5%
WBC [13]: 63.2 x10_2/uL
KIDNEY_L [13]: 1 g
KIDNEY_R [13]: 1 g
KIDNEY_TOTAL [13]: 2 g
ALP [14]: 1558.2 IU/L
CRE [14]: 0.1 mg/dL
DBIL [14]: 0.004 mg/dL
IP [14]: 8.9 mg/dL
K [14]: 4.4 meq/L
LDH [14]: 118.4 IU/L
Na [14]: 142.6 meq/L
PL [14]: 148.2 mg/dL
RALB [14]: 3 g/dL
TBIL [14]: 0.028 mg/dL
TG [14]: 71.6 mg/dL
TP [14]: 5.4 g/dL
gamma-GTP [14]: 1.2 IU/L
TERMINAL_BW [15]: 231.5 g
Bas [15]: 0%
Eos [15]: 0.8%
Fbg [15]: 319.6 mg/dL
Lym [15]: 74.8%
Mono [15]: 3%
RBC [15]: 633.6 x10_4/ul
Ret [15]: 7.1%
WBC [15]: 84.6 x10_2/uL
KIDNEY_L [15]: 1 g
KIDNEY_R [15]: 1.1 g
KIDNEY_TOTAL [15]: 2.1 g
ALP [16]: 1496.4 IU/L
CRE [16]: 0.1 mg/dL
DBIL [16]: 0.002 mg/dL
IP [16]: 9.1 mg/dL
K [16]: 4.1 meq/L
LDH [16]: 144.2 IU/L
Na [16]: 141 meq/L
PL [16]: 146.8 mg/dL
RALB [16]: 3 g/dL
TBIL [16]: 0.01 mg/dL
TP [16]: 5.6 g/dL
gamma-GTP [16]: 1.6 IU/L
